Source: ChEMBL document CHEMBL1201862, “PubChem BioAssay data set” (2004)
Calls of active or inactive are those of the source.

Tests used:
NS3 = NS3 (Hepatitis C virus, UniProt A3EZJ3); assay: PubChem AID 2173; design: species or system Hepacivirus hominis
[1] = biological target: Dual specificity protein phosphatase 3 (Homo sapiens, UniProt P51452); assay: inhibition constants for human DUSP3 – biochemical, colorimetric, SAR follow-up (AID 2004)
[2] = mitochondrial function rescue without frataxin homolog – Friedreich's ataxia, plus single-dose screen, dose response (AID 1465); format: functional;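 further: yeast depleted of Yfh1p frataxin homolog grown on glycerol needing respiration; WST-1 tetrazolium dye reduction as measure of cellular dehydrogenase metabolic activity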
[3] = HEK-293T cell viability reduction – luminescence, B-cell screen hits, cytotoxicity control for BCR NF-kB inhibitor project, dose response (AID 489021); format: functional, cell-based;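 further: HEK-293T cells carrying an NF-kB luciferase reporter; cells exposed to compound for about 14 hours before viability readout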
[4] = biological target: T1, Sentrin-specific protease 1 (Homo sapiens, UniProt Q9P0U3); assay: SENP1 catalytic domain blockers, concentration series – biochemical, kinetic FRET, dose response (AID 651697); format: functional; conditions: read-out: IC50_Mean
T1 sequence (Q9P0U3 whole entry): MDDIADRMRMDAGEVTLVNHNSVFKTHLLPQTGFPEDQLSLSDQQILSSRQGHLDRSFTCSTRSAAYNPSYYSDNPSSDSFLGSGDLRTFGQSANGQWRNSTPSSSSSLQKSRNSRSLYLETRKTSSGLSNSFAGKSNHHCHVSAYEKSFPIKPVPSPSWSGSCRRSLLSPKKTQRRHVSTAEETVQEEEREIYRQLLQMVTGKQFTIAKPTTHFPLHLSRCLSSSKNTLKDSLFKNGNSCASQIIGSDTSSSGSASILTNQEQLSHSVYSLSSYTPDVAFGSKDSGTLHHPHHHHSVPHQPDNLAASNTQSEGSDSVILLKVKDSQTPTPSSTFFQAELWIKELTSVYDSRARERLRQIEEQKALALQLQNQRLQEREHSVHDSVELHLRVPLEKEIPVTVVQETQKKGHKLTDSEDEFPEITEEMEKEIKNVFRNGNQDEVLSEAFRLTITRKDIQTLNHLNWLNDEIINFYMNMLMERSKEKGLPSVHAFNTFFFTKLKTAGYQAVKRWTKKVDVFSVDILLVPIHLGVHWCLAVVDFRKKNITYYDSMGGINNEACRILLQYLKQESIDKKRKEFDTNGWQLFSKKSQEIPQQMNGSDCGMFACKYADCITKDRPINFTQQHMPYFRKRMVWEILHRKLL

[5] = biological target: T1, Sentrin-specific protease 1; assay: Dose response confirmation of small molecule inhibitors of the catalytic domain of the SUMO protease, SENP1 in a FRET assay.; format: functional; conditions: read-out: IC50_Mean
[6] = biological target: T2, RNA-binding protein pos-1 (Caenorhabditis elegans, UniProt G5EF15); assay: disruptors of C. elegans POS-1 RNA interaction – biochemical, fluorescence polarization, dose response (AID 1964);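 further: purified POS-1 fused to maltose binding protein made in E. coli; potency of compounds blocking POS-1 binding to fluorescent RNA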
T2 sequence (G5EF15 whole entry): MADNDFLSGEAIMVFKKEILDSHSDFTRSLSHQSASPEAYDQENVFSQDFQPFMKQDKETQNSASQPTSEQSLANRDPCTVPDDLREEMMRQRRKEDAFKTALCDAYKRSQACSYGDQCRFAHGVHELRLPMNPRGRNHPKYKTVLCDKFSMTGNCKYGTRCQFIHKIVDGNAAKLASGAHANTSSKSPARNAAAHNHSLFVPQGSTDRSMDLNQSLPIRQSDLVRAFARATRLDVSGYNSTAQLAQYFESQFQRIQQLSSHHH

[7] = biological target: T3, Zinc finger protein mex-5 (Caenorhabditis elegans, UniProt Q9XUB2); assay: potency of MEX-5 RNA-binding blockers – biochemical, C. elegans, fluorescence polarization, dose response (AID 1960)
T3 sequence (Q9XUB2 whole entry): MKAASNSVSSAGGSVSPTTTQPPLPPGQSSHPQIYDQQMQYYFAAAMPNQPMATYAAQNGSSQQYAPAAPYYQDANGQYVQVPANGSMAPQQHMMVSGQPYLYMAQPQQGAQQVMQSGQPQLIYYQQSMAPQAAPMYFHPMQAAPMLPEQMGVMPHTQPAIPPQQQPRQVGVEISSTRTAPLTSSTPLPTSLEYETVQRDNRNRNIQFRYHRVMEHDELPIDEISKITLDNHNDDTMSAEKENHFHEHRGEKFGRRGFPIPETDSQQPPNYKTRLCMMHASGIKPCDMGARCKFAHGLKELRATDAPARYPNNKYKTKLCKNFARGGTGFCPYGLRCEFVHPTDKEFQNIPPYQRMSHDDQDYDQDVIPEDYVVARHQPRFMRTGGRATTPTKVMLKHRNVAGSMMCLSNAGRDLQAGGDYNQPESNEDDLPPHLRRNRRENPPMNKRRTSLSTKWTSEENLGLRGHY

[8] = Trypanosoma cruzi growth suppression in host cells – NIH3T3 host cells, beta-gal luminescence, confirmation (AID 2044); format: functional, cell-based;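 further: intracellular parasites grown in NIH/3T3 mouse fibroblasts as host cells; luminescent beta-galactosidase reporter signal from transgenic T. cruzi replicating inside host cells; inhibitors lower the luminescence signal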
[9] = NIH3T3 cell viability loss – ATP luminescence, mouse fibroblasts, counter-screen, dose response (AID 2010); format: functional, cell-based;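 further: cells exposed to compound for about 90 hours before reading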
Salmon testes DNA = assay: acridine orange-DNA binding displacement – biochemical, fluorescence polarization, cherry-picked samples, set 2, artefact control for KSHV LANA DNA-binding inhibitor project, dose response (AID 504727); design: species or system Salmonidae
[10] = biological target: Neurotensin receptor type 1 (Homo sapiens, UniProt P30989); format: functional;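 further: Image-based confirmatory dose-response assay measuring agonist activity at NTR1; NTR1-expressing U2OS osteosarcoma cells imaged for beta-arrestin GFP spot formation; agonist potency where compounds increase beta-arrestin recruitment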
[11] = biological target: Neuropeptide Y receptor type 2 (Homo sapiens, UniProt P49146); assay: IC50 for human NPY-Y2 blockade – cell-based, counter-screen for NPY-Y1 antagonist project, dose response (AID 1278); format: functional
[12] = biological target: Neuropeptide Y receptor type 1 (Homo sapiens, UniProt P25929); assay: IC50 of human NPY-Y1 blockers – cell-based, dose response (AID 1277); format: functional
Sequence of Neuropeptide Y receptor type 1 (P25929 whole entry): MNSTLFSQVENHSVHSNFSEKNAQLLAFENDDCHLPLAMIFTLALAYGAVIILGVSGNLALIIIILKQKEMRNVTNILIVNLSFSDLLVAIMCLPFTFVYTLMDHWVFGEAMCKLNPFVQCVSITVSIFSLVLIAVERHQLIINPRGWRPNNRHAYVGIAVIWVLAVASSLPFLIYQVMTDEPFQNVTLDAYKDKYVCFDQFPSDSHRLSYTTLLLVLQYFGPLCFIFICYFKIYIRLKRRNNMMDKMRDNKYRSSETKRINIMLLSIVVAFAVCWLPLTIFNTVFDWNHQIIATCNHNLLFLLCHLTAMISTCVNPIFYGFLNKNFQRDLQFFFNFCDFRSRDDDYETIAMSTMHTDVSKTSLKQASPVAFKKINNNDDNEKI

Sequence of Neuropeptide Y receptor type 2 (P49146 whole entry): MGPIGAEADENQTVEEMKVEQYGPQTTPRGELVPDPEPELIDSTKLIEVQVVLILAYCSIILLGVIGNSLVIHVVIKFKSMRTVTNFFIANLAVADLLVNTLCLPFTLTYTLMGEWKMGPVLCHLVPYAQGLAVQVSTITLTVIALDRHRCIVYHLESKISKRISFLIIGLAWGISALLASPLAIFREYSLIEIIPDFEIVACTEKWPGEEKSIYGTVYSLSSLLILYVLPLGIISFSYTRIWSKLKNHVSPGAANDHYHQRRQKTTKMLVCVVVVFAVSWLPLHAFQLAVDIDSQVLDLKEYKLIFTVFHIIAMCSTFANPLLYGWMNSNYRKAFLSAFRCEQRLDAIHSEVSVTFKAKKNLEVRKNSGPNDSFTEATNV
Sequence of NS3 (A3EZJ3 whole entry): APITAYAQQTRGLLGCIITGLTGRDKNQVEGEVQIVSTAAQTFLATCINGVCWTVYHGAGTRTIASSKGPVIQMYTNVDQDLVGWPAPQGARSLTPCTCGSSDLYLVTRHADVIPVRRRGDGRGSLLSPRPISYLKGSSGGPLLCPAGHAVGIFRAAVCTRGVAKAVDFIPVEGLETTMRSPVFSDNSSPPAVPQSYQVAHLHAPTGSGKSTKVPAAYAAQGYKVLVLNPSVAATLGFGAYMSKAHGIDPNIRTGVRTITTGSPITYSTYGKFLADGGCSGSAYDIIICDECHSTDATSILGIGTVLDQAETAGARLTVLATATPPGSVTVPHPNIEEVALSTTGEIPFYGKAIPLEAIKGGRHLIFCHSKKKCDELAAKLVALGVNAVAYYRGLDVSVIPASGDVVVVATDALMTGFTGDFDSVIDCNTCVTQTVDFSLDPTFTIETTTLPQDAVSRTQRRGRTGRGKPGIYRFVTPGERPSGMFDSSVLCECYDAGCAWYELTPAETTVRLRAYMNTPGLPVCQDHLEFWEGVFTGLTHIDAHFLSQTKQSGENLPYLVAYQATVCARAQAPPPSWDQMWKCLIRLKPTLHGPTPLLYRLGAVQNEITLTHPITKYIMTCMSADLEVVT
Sequence of Dual specificity protein phosphatase 3 (P51452 whole entry): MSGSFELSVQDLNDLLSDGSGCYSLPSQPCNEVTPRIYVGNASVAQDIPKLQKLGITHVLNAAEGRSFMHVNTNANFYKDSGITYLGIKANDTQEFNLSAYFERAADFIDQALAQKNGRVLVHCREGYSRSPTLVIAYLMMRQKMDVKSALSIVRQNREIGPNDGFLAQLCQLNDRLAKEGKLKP
Sequence of Neurotensin receptor type 1 (P30989 whole entry): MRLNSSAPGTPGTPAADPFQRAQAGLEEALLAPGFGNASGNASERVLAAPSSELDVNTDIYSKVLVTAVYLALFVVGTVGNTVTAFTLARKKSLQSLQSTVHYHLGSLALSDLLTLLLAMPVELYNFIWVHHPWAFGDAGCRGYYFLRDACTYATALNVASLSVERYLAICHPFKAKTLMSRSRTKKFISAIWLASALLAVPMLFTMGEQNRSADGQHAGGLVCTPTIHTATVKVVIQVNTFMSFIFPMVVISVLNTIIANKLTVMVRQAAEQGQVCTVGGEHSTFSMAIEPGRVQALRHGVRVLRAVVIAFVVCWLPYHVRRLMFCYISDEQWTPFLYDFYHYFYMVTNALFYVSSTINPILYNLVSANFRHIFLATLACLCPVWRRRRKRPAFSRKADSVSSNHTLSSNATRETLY

Cc1cc(Cl)ccc1Oc1ccccc1C(=O)CC#N
IC50 (NS3): 3.54 µM (active)

CC(C)C1SC(N/N=C/c2ccc(O)cc2)=NC1=O (centres undefined)
Ki [1]: 36.1 µM (inactive)

CCOc1ccc2nc(NN=C3C(=O)NC(=O)NC3=O)sc2c1
EC50 [2]: > 100 µM (active)

CCSc1ncc(Cl)c(C(=O)Nc2sc3c(c2C(=O)NCc2cccnc2)CCCC3)n1
IC50 [3]: > 80 µM (inactive) | IC50 [4]: 19.1 µM (active) | IC50 [5]: 5.97 µM (active)

COc1cccc(OCCCn2cc(/C=C3/C(=N)N4C=C(C)SC4=NC3=O)c3ccccc32)c1
EC50 [6]: 108 µM (active) | EC50 [7]: 109 µM (active) | EC50 [8]: 1.34 µM (active) | EC50 [9]: > 60 µM (not active) | AC50 (Salmon testes DNA): 65.9 µM (active)

O=C(COC(=O)/C=C/C(=O)OCC(=O)NC12CC3CC(CC(C3)C1)C2)NC12CC3CC(CC(C3)C1)C2
EC50 [10]: > 40 µM (inactive)

COc1ccc(C2N(c3ccc(Cl)cc3)N=C(C(C)=O)N(C)N2C(C)=O)cc1 (centres undefined)
IC50 [11]: > 35 µM (not active) | IC50 [12]: > 35 µM (not active)
